This is an account of results in US20230149507A1, “TREATMENT OF ALT CANCERS” (INSTITUTO DE MEDICINA MOLECULAR JOÃO LOBO ANTUNES, priority 2019, published 2023).

Assay [1] relates to U-2 OS cells. Nature of the assay: Fragile telomeres in cells overexpressing FANCM variants. It is filed as cell-based, human. The settings on record: stable overexpression. The text has this:
(§1) (a) Schematic of FANCM domain interactions, mutations or deletions. For clarity, domains have been color coded by functional role (bottom panel). (b) Quantitation of metaphase-TIFs in U-2 OS cells stably overexpressing wild-type (FANCM+) or FANCM mutants. Scatterplot bars represent the mean±SEM. Out of 3 experiments, n≥110 metaphases scored for each mutant, *p<0.05, **p<0.005, Mann-Whitney test. (c) Quantitation of fragile telomeres in U-2 OS cells stably overexpressing wild-type (FANCM+) or FANCM mutants. Scatterplot bars represent the mean±SEM. Out of 3 experiments, n>100 metaphases scored for each mutant, *p<0.05, **p<0.005, Mann-Whitney test. (d) Representative dot blots and quantitation of C-circle assays in U-2 OS cells stably overexpressing wild-type (FANCM+) or FANCM domain mutants. C-circles were normalized to the mean of vector control. Error bars represent mean±SEM from n=3 experiments, *p<0.05, **p<0.005, Student's t-test. (e) Single molecule analysis of telomeric extension events (top panel) and length of extension events (bottom panel) in U-2 OS cells stably overexpressing wild-type (FANCM+) or FANCM domain mutants. Error bars represent mean±SEM of n≥350 fibers out of 3 experiments, *p<0.05, **p<0.005, Student's t-test.
(§2) Empty vector and wild-type FANCM (pCMV6-Myc-DDK) constructs were obtained from Origene Technologies. Wild type FANCM (SEQ ID NO: 2) and FANCM mutants (SEQ ID NOs: 19 to 28) were cloned into the pLenti-C-Myc-DDK-IRES-Neo backbone (Origene Technologies) by restriction enzyme subcloning of gene blocks synthesized by Integrated DNA Technologies (IDT). Lentivirus was produced by the Vector and Genome Engineering Facility (Children's Medical Research Institute). For stable overexpression, cells were transduced with lentivirus, allowed to recover for 24 h, and subject to G418 selection. Cells were maintained in G418 to ensure sustained overexpression.
Indirect IF and telomere FISH were performed on both interphase nuclei and metaphase spreads. For interphase IF experiments, cells were grown on coverslips or LabTek chamber slides (Thermo Scientific). Slides were prepared as described in Sobinoff et al., 2017. Cells on coverslips were washed twice with PBS, permeabilized with KCM buffer (120 mM KCl, 20 mM NaCl, 10 mM Tris pH 7.5, 0.1% Triton), washed again with PBST and PBS, then fixed with ice-cold 4% formaldehyde PBS solution at room temperature for 10 min. Coverslips were blocked with antibody-dilution buffer (20 mM Tris-HCl, pH 7.5, 2% (w/v) BSA, 0.2% (v/v) fish gelatin, 150 mM NaCl, 0.1% (v/v) Triton X-100 and 0.1% (w/v) sodium azide) and 0.1 mg/ml RNaseA for 30 min at 37° C. […]

The subject of assay [2] is U-2 OS cells. In words: C-circle assay in cells overexpressing FANCM variants. The format is cell-based, human. As to conditions: stable overexpression, compared to vector control.
Source text: as §1
FIG. 23. Defects in ALT phenotype suppression are exacerbated by overexpression of a double-mutant (DM) FANCM, in which both the MM2 domain (FF>AA) and the translocase domain (K117R) of FANCM are mutated. (a) Representative dot blots and quantitation of C-circle assays in U-2 OS cells stably overexpressing wild-type (WT) or FANCM domain mutants (K117R, FF>AA; DM). C-circles were normalized to the mean of empty vector control (EV). Error bars represent mean±SEM from n=3 experiments, *p<0.05, **p<0.005, Student's t-test. (b) Quantitation of APB frequency in U-2 OS cells overexpressing wild-type (WT) or FANCM mutants. Scatterplot bars represent the mean±SEM. Out of three experiments, n=150 cells were scored for each mutant, **p<0.005, Mann-Whitney test. (c) Quantitation of metaphase-TIFs in U-2 OS cells stably overexpressing wild-type (WT) or FANCM mutants. Scatterplot bars represent the mean±SEM. Out of three experiments, n=120 metaphases scored for each mutant, *p<0.05, **p<0.005, Mann-Whitney test. All statistical comparisons are relative to EV control.
as §2
C-circles were amplified with Phi29 polymerase using dATP, dTTP and dGTP overnight. Products were dot blotted onto Biodyne B membranes (Pall) and pre-hybridised in PerfectHyb Plus (Sigma) for at least 30 min. Radiolabeled telomeric C-probe was then added and blots were hybridized overnight at 37° C. (Henson et al., 2009). Blots were washed with 0.5×SSC, 0.1% SDS three times for 5 min each then exposed to phosphor screen. Imaging was performed on the Typhoon FLA 7000 system (GE Healthcare) with a PMT of 750 V.

Consider “FF>AA: FANCM mutant (SEQ ID NO: 25), double substitution F1232A/F1236A within the MM2 domain”, for which, in assay [1], the “number of fragile telomeres (telomere fragility)” value is listed as “significantly increased”. The C-circle levels entry in assay [2] was “approximate two-fold increase in C-circles”.

On to “K117R: FANCM mutant (SEQ ID NO: 20) substituted at K117R, DEAH domain disrupted”, for which the “number of fragile telomeres (telomere fragility)” value in assay [1] is listed as “failed to suppress the phenotypes”. Besides, the C-circle levels result in assay [2] is “did not cause a change in C-circle levels”.
